Results reported in patent publication US20170333407A1, “METHOD FOR TREATING UNDERACTIVE BLADDER SYNDROME” (William Beaumont Hospital, priority 2014, published 2017).
Values joined by “and” are separate entries in the source; they are usually repeats but may differ in a detail not shown here. Equal values may be shown once. “Also recorded” adds a separate entry of the source.

Test system: patients with symptoms of UAB syndrome
Experiment: Treatment of patients with symptoms of UAB syndrome with cevimeline (Qmax, PVR, UAB symptom questionnaire)
Type: in vivo, human
Settings: for UAB Score: five-question UAB symptom questionnaire, lower score = improvement; for UAB Score / PVR (residual urine volume in the bladder) / Qmax (maximum urine flow rate): individual patients
Excerpt: Six different patients who each suffered from one or more medical conditions and symptoms of UAB syndrome were examined. UAB symptom-related data obtained from the patients before and after treatment with cevimeline was obtained from some of the patients and is presented below in Tables I-IV. […] Quantitative measurements were made to determine maximum urine flow rate Qmax (expressed in mL/s) and residual urine volume in the bladder PVR (expressed in mL). Qualitative measurements were obtained based on the patient's perceived UAB symptoms. A lower UAB score indicates an improvement in UAB symptoms. […] 4 and 6 after one week of treatment with cevimeline. Cevimeline was administered to each patient in 30 mg doses, three times per day. […] Specifically, the volume of residual urine in the bladder of patient 6 decreased from a baseline volume of 120 mL to a treated volume of 28 mL. To assess for qualitative improvement of UAB symptoms upon administration of cevimeline, patients were surveyed using a five-question UAB symptom questionnaire. The UAB score was then tallied from the patient responses. […] 4 and 6 after a two-week treatment with cevimeline. Cevimeline was administered to each patient in 60 mg doses, three times per day.

[1] = after one week of treatment with cevimeline 30 mg tid
[2] = after two weeks of treatment with cevimeline 60 mg tid

Question: With `C[C@@H]1O[C@@]2(CS1)CN1CCC2CC1` [cevimeline, (2R,5R)-2-methylspiro[1,3-oxathiolane-5,3′-1-azabicyclo[2.2.2]octane]] as the compound, how does the “UAB Score” value [1] read?
Answer: Its value is 12 and 9 (2×).

Question: And the “PVR (residual urine volume in the bladder)” value [1]?
Answer: Its value is 28 mL and 240 mL.

Question: What about the “Qmax (maximum urine flow rate)” value [1] of the same compound?
Answer: Its value is 2.9 mL/s and 3 mL/s.

Question: And the “improvement in UAB symptoms (in words)” value (after one week, 30 mg three times per day, patient 4 and patient 6)?
Answer: Its value is “did not demonstrate any quantitative or qualitative improvement; also recorded: did show quantitative improvement”.

Question: And the “UAB Score” value [2]?
Answer: The value was 7.

Question: What about the “PVR (residual urine volume in the bladder)” value [2] of the same compound?
Answer: The value was 92 mL and 69 mL.

Question: And the “Qmax (maximum urine flow rate)” value [2]?
Answer: The value was 9.5 mL/s and 9.9 mL/s.

Question: And the “improvement of UAB syndrome-related symptoms (in words)” value (after two-week treatment, 60 mg three times per day, patient 4 and patient 6)?
Answer: Its value is “demonstrated both quantitative and qualitative improvements”.

Question: What about the “overall effect on symptoms related to UAB syndrome (in words)” value (initial data from preliminary studies) of the same compound?
Answer: The value was “effective at treating the symptoms related to UAB syndrome”.
